Results: patent US7414064B2, “4-(3,3-dihalo-allyloxy) phenoxy alkyl derivatives” (Syngenta Crop Protection, Inc., priority 2002, dated 2008)

Experiments:
Heliothis virescens = experiment: Action against Heliothis virescens caterpillars (sprayed soybean plants); assay type: in vivo; settings: 144 h, 400 ppm spray mixture, caterpillars in the first stage, evaluation 6 days later, read-out: percentage reduction in population and percentage reduction in feeding damage (% activity)
Experimental: Young soybean plants are sprayed with an aqueous emulsion spray mixture comprising 400 ppm of test compound. After the spray-coating has dried, the soybean plants are populated with 10 caterpillars of Heliothis virescens in the first stage and placed in a plastics container. Evaluation is made 6 days later. The percentage reduction in population and the percentage reduction in feeding damage (% activity) are determined by comparing the number of dead caterpillars and the feeding damage on the treated plants with that on the untreated plants.

For `O=C(Nc1ccc(OCCCOc2c(Cl)cc(OCC=C(Cl)Cl)cc2Cl)cc1)c1ccccc1C(F)(F)F` [Compound 1.24], which melting point is on record?
Its melting point is 118 to 121 °C.

For `COC(=O)Nc1ccc(OCCCOc2c(Cl)cc(OCC=C(Cl)Cl)cc2Cl)cc1` [Compound 1.3], which inhibition at 400 ppm (Heliothis virescens) is on record?
The inhibition at 400 ppm was greater than 80%.

For `O=C(Nc1ccc(OCCCOc2c(Cl)cc(OCC=C(Cl)Cl)cc2Cl)cc1)c1ccco1` [Compound 1.25], which melting point is on record?
Its melting point is 108 to 113 °C.

For `O=C(Nc1ccc(OCCCOc2c(Cl)cc(OCC=C(Cl)Cl)cc2Cl)cc1)c1cccs1` [Compound 1.26], which melting point is on record?
Its melting point is 83 to 90 °C.

Which melting point does the source give for `O=C(Nc1ccc(OCCCOc2c(Cl)cc(OCC=C(Cl)Cl)cc2Cl)cc1)c1ccccc1Br` [Compound 1.21] here?
The melting point was 112 to 114 °C.

Which melting point does the source give for `Cc1ccccc1C(=O)Nc1ccc(OCCCOc2c(Cl)cc(OCC=C(Cl)Cl)cc2Cl)cc1` [Compound 1.20] here?
Its melting point is 89 to 92 °C.

With `C#CCOC(=O)Nc1ccc(OCCCOc2c(Cl)cc(OCC=C(Cl)Cl)cc2Cl)cc1` [Compound 1.10] as the compound, how does the inhibition at 400 ppm (Heliothis virescens) read?
The inhibition at 400 ppm was greater than 80%.

With `CCOC(=O)Nc1ccc(OCCCOc2c(Cl)cc(OCC=C(Cl)Cl)cc2Cl)cc1` [Compound 1.4] as the compound, how does the inhibition at 400 ppm (Heliothis virescens) read?
Its inhibition at 400 ppm is greater than 80%.

Which melting point does the source give for `O=C(Nc1ccc(OCCCOc2c(Cl)cc(OCC=C(Cl)Cl)cc2Cl)cc1)c1ccc(F)cc1F` [Compound 1.23] here?
Its melting point is 89 to 91 °C.

Which melting point does the source give for `O=C(Nc1ccc(OCCCOc2c(Cl)cc(OCC=C(Cl)Cl)cc2Cl)cc1)c1c(F)cccc1F` [Compound 1.22] here?
Its melting point is 95 to 97 °C.

With `O=C(Nc1ccc(OCCCOc2c(Cl)cc(OCC=C(Cl)Cl)cc2Cl)cc1)c1ccccc1Cl` [Compound 1.19] as the compound, how does the melting point read?
Its melting point is 107 to 111 °C.

For `CC(C)(C)OC(=O)Nc1ccc(OCCCOc2c(Cl)cc(OCC=C(Cl)Cl)cc2Cl)cc1` [Compound 1.6, (4-{3-[2,6-Dichloro-4-(3,3-dichloroallyloxy)-phenoxy]-propoxy}-phenyl)-carbamic acid tert-butyl ester], which inhibition at 400 ppm (Heliothis virescens) is on record?
Its inhibition at 400 ppm is greater than 80%.
